For 17 compounds, EC50 results are on record in patent publication US12264173B2 (GILEAD SCIENCES, INC., priority 2020, dated 2025).

Each structure is given as a SMILES string. Like-named read-outs stand apart in the source and are kept apart here.

What all share (type): cell-based
One experiment has as its system HRV16. Nature of the experiment: HRV16 HeLa EC50 (cytopathic effect in H1-HeLa cells). Put shortly: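 H1-HeLa cells seeded one day before, given 3-fold serial compound dilutions in triplicate just prior to infection with pre-titrated virus. Incubated 96 h at 33 °C/5% CO2; protection from cytopathic effect read as viability by CellTiter-Glo luminescence, normalised to infected untreated (0%) and uninfected (100%) controls.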
(In general: Protection from cytopathic effect is a common read-out in antiviral testing.)

A further experiment relates to DENV2 replicon. As to the kind of experiment: DENV-2 Huh-7 Rep EC50 (replicon luminescence). Put shortly:
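Huh-7 cells carrying a DENV2 replicon, 5,000 cells/well, were incubated with dosed compounds for 48 h at 37° C. EnduRen live-cell substrate was added 1.5 h before luminescence reading. EC50 came from dose-response against DMSO-only wells.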

Another experiment has as its system RSV A2. As to the kind of experiment: RSV NHBE EC50 (RSV A2 antiviral assay in NHBE cells). The settings on record: Table 3, NHBE cells, RSV A2, 4 days, read-out: RSV NHBE EC50. The method, boiled down: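 Primary bronchial epithelial cells attach overnight, receive 3-fold serial compound dilutions, and are infected with RSV A2 at 1×10^4.5 tissue culture infectious doses/mL. Protection from virus-induced cell death is scored by luminescent viability assay after 4 days.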

A further experiment relates to RSV strain A2. Nature of the experiment: microbe, parasite or virus in culture. The settings on record: Table 3, HEp-2 cells, RSV A2, 4 days, read-out: RSV HEp-2 EC50. The method, boiled down:
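Cytopathic-effect protection assay: HEp-2 cells (50,000/mL) infected with pre-titered RSV A2 onto 3-fold serial compound dilutions, incubated 4 days at 37° C. Cell viability read by CellTiter-Glo luminescence; percent inhibition derived against 0% and 100% virus-inhibition controls.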

The mark [1] stands for this setting: Table 3; H1-HeLa cells, 96 h; read-out: HRV16 HeLa EC50.
The mark [2] stands for this setting: Table 3, Huh-7 DENV2 replicon cells, 48 hours, read-out: DENV-2 REP Huh7 EC50.
[3] abbreviates: 96 h, Table 3; H1-HeLa cells, 96 h; read-out: HRV16 HeLa EC50.
Where [4] appears, read: Dengue virus, DENV2, Huh-7, 48 h, read-out: DENV-2 REP Huh7 EC50.
The mark [5] stands for this setting: human respiratory syncytial virus, NHBE, 96 h.
The mark [6] stands for this setting: human respiratory syncytial virus, HEp-2, 96 h.
Where [7] appears, read: Dengue virus, DENV2, Huh-7, 48 h, read-out: DENV-2 REP Huh7 EC50, Table 3, Huh-7 DENV2 replicon cells, 48 hours.

By EC50 is commonly meant the concentration giving half of the maximal effect. Take `CC(=O)O[C@H]1[C@H](c2ccc3c(N)ncnn23)O[C@](C#N)(CO[P@](=O)(N[C@@H](C)C(=O)OCC2CCC2)Oc2ccccc2)[C@H]1OC(C)=O` [Example 96]: the EC50 in the experiment on HRV16 (setting [1]) turned out to be 417 nM; in the experiment on DENV2 replicon (setting [2]) it was 16800 nM; in the experiment on RSV A2 it was 20 nM; with RSV strain A2, 63 nM.
For `CC(C)C(=O)O[C@H]1[C@H](c2ccc3c(N)ncnn23)O[C@](C#N)(COP(=O)(NCCOC(=O)C(C)(C)C)Oc2ccccc2)[C@H]1OC(=O)C(C)C` (stereo partly drawn) [Example 97, (2R,3S,4S,5S)-5-(4-aminopyrrolo[2,1-f][1,2,4]triazin-7-yl)-2-cyano-2-(((phenoxy((2-(pivaloyloxy)ethyl)amino)phosphoryl)oxy)methyl)tetrahydrofuran-3,4-diyl bis(2-methylpropanoate)], the EC50 in the experiment with HRV16 (setting [3]) was 1120 nM; with DENV2 replicon (setting [4]), 9050 nM; with RSV A2 (setting [5]), over 5000 nM; in the experiment on RSV strain A2 (setting [6]) it was 366 nM.
`CC(=O)O[C@H]1[C@H](c2ccc3c(N)ncnn23)O[C@](C#N)(CO[P@@](=O)(N[C@@H](C)C(=O)OCC2CC2)Oc2ccccc2)[C@H]1OC(C)=O` [Example 102]: the EC50 with HRV16 (setting [1]) stood at 526 nM; in the experiment with DENV2 replicon (setting [2]), 39100 nM; in the experiment with RSV A2, 18 nM; in the experiment on RSV strain A2 it was 178 nM.
On to `CCOC(=O)[C@H](C)N[P@](=O)(OC[C@@]1(C#N)O[C@@H](c2ccc3c(N)ncnn23)[C@H](OC(C)=O)[C@@H]1OC(C)=O)Oc1ccccc1` [Example 104, (2R,3S,4S,5S)-5-(4-aminopyrrolo[2,1-f][1,2,4]triazin-7-yl)-2-cyano-2-((((S)-(((S)-1-ethoxy-1-oxopropan-2-yl)amino)(phenoxy)phosphoryl)oxy)methyl) tetrahydrofuran-3,4-diyl diacetate], for which the EC50 with HRV16 (setting [3]) stood at 703 nM; with DENV2 replicon (setting [4]) it was 29100 nM; in the experiment with RSV A2 (setting [5]), 32 nM; with RSV strain A2 (setting [6]), 147 nM.
In the case of `CCOC(=O)[C@H](C)N[P@](=O)(OC[C@@]1(C#N)O[C@@H](c2ccc3c(N)ncnn23)[C@H](OC(=O)CC)[C@@H]1OC(=O)CC)Oc1ccccc1` [Example 105, (2R,3S,4S,5S)-5-(4-Aminopyrrolo[2,1-f][1,2,4]triazin-7-yl)-2-cyano-2-((((S)-(((S)-1-ethoxy-1-oxopropan-2-yl)amino)(phenoxy)phosphoryl)oxy)methyl) tetrahydrofuran-3,4-diyl dipropionate], the EC50 was 182 nM in the experiment on HRV16 (setting [3]), 12900 nM in the experiment on DENV2 replicon (setting [4]), 13 nM with RSV A2 (setting [5]) and 57 nM with RSV strain A2 (setting [6]).
For `CC(C)OC(=O)[C@H](C)N[P@](=O)(OC[C@@]1(C#N)O[C@@H](c2ccc3c(NC(=O)C(C)C)ncnn23)[C@H](OC(=O)C(C)C)[C@@H]1OC(=O)C(C)C)Oc1ccccc1` [Example 106], in that order: 805 nM, 14600 nM, 15 nM and 173 nM.
Regarding `CCC(=O)O[C@H]1[C@H](c2ccc3c(N)ncnn23)O[C@](C#N)(CO[P@@](=O)(N[C@@H](C)C(=O)OCC2CCOCC2)Oc2ccccc2)[C@H]1OC(=O)CC` [Example 108], the EC50 is 385 nM in the experiment on HRV16 (setting [1]), 39300 nM in the experiment on DENV2 replicon (setting [2]), 6 nM in the experiment on RSV A2 and 217 nM with RSV strain A2.
For `CCC(=O)O[C@H]1[C@H](c2ccc3c(N)ncnn23)O[C@](C#N)(CO[P@](=O)(N[C@@H](C)C(=O)OCC2CCOCC2)Oc2ccccc2)[C@H]1OC(=O)CC` [Example 109], in that order: 379 nM, 26300 nM, 32 nM and 103 nM.
For `CC(=O)O[C@H]1[C@H](c2ccc3c(N)ncnn23)O[C@](C#N)(CO[P@](=O)(N[C@@H](C)C(=O)OCC2CCOCC2)Oc2ccccc2)[C@H]1OC(C)=O` [Example 112], in that order: 2900 nM, 36500 nM, 40 nM and 284 nM.
For the compound `CCC(CC)COC(=O)[C@H](C)NP(=O)(N[C@@H](C)C(=O)OCC(CC)CC)OC[C@@]1(C#N)O[C@@H](c2ccc3c(N)ncnn23)[C@H](OC(C)=O)[C@@H]1OC(C)=O` [Example 114, (2R,3S,4S,5S)-5-(4-Aminopyrrolo[2,1-f][1,2,4]triazin-7-yl)-2-cyano-2-((((((S)-1-(2-ethylbutoxy)-1-oxopropan-2-yl)amino)(((2S)-1-(2-ethylbutoxy)-1-oxopropan-2-yl)amino)phosphoryl)oxy)methyl)tetrahydrofuran-3,4-diyl diacetate], the EC50 with HRV16 (setting [3]) was found to be 3850 nM; in the experiment with DENV2 replicon (setting [7]) it was 26300 nM; in the experiment on RSV A2 (setting [5]) it was 201 nM; in the experiment on RSV strain A2 (setting [6]), 1660 nM.
Take `CCC(=O)O[C@H]1[C@H](c2ccc3c(N)ncnn23)O[C@](C#N)(CO[P@@](=O)(N[C@@H](C)C(=O)OCC2CCN(CC(F)(F)F)CC2)Oc2ccccc2)[C@H]1OC(=O)CC` [Example 116]: the half-maximal effective concentration (EC50) in the experiment with HRV16 (setting [1]) is 303 nM; in the experiment on DENV2 replicon (setting [2]) it was 19700 nM; in the experiment with RSV A2, 15 nM; in the experiment with RSV strain A2, 273 nM.
On the same counts, the results for `CCC(=O)O[C@H]1[C@H](c2ccc3c(N)ncnn23)O[C@](C#N)(CO[P@](=O)(N[C@@H](C)C(=O)OCC2CCN(CC(F)(F)F)CC2)Oc2ccccc2)[C@H]1OC(=O)CC` [Example 117] are 462 nM, 19100 nM, 20 nM and 113 nM.
For `CC(=O)O[C@H]1[C@H](c2ccc3c(N)ncnn23)O[C@](C#N)(CO[P@@](=O)(N[C@@H](C)C(=O)OCC2CCN(CC(F)(F)F)CC2)Oc2ccccc2)[C@H]1OC(C)=O` [Example 119], in that order: 1050 nM, 71400 nM, 27 nM and 541 nM.
For the compound `CC(=O)O[C@H]1[C@H](c2ccc3c(N)ncnn23)O[C@](C#N)(COP(=O)(N[C@@H](C)C(=O)OC2CCCCC2)N[C@@H](C)C(=O)OC2CCCCC2)[C@H]1OC(C)=O` [Example 121, (2R,3S,4S,5S)-5-(4-Aminopyrrolo[2,1-f][1,2,4]triazin-7-yl)-2-cyano-2-((((((S)-1-(cyclohexyloxy)-1-oxopropan-2-yl)amino)(((S)-1-cyclohexyloxy-1-oxopropan-2-yl)amino)phosphoryl)oxy)methyl)tetrahydrofuran-3,4-diyl diacetate], the EC50 worked out at 6660 nM in the experiment on HRV16 (setting [3]), 44400 nM in the experiment with DENV2 replicon (setting [7]), 498 nM in the experiment on RSV A2 (setting [5]) and 5450 nM in the experiment with RSV strain A2 (setting [6]).
In the case of `CC(C)[C@H](N)C(=O)O[C@H]1[C@H](c2ccc3c(N)ncnn23)O[C@](C#N)(CO[P@@](=O)(N[C@@H](C)C(=O)OC2CCCCC2)Oc2ccccc2)[C@H]1OC(=O)[C@@H](N)C(C)C` [Example 122, (2R,3S,4S,5S)-5-(4-aminopyrrolo[2,1-f][1,2,4]triazin-7-yl)-2-cyano-2-((((S)-(((S)-1-(cyclohexyloxy)-1-oxopropan-2-yl)amino)(phenoxy)phosphoryl)oxy)methyl)tetrahydrofuran-3,4-diyl (2S,2'S)-bis(2-amino-3-methylbutanoate)], the EC50 stood at 301 nM with HRV16 (setting [3]), 5540 nM in the experiment with DENV2 replicon (setting [4]), 90 nM in the experiment with RSV A2 (setting [5]) and 79 nM in the experiment with RSV strain A2 (setting [6]).
With `CCC(=O)O[C@H]1[C@H](c2ccc3c(N)ncnn23)O[C@](C#N)(COP(=O)(N[C@@H](C)C(=O)OC(C)C)N[C@@H](C)C(=O)OC(C)C)[C@H]1OC(=O)CC` [Example 123, ((2R,3S,4R,5S)-5-(4-aminopyrrolo[2,1-f][1,2,4]triazin-7-yl)-2-cyano-3,4-dipropionatetetrahydrofuran-2-yl)methyl bis-isopropyl L-alaninate phosphate], the concentration giving a half-maximal response (EC50) was 7570 nM in the experiment on HRV16 (setting [3]), over 50000 nM in the experiment with DENV2 replicon (setting [7]), 175 nM in the experiment with RSV A2 (setting [5]) and 2280 nM in the experiment on RSV strain A2 (setting [6]).
On the same counts, the results for `CCOC(=O)[C@H](C)NP(=O)(N[C@@H](C)C(=O)OCC)OC[C@@]1(C#N)O[C@@H](c2ccc3c(N)ncnn23)[C@H](OC(=O)CC)[C@@H]1OC(=O)CC` [Example 124, ((2R,3S,4R,5S)-5-(4-aminopyrrolo[2,1-f][1,2,4]triazin-7-yl)-2-cyano-3,4-dipropionatetetrahydrofuran-2-yl)methyl bis-ethyl L-alaninate phosphate] are 8390 nM, over 50000 nM, 150 nM and 2100 nM.
